Test results published in article PMC3907537, “Evaluation of the Endothelin Receptor Antagonists Ambrisentan, Bosentan, Macitentan, and Sitaxsentan as Hepatobiliary Transporter Inhibitors and Substrates in Sandwich-Cultured Human Hepatocytes” (PLoS ONE, 2014).

System: sandwich-cultured human hepatocytes
Assay: ERA effect on hepatobiliary disposition of d8-taurocholate (B-CLEAR sandwich culture)
Type: cell-based
Settings: 100 µM control inhibitor
Procedure: Sandwich-cultured human hepatocytes were obtained from Celsis/IVT (Baltimore, MD) or Life Technologies (Durham, NC). Donors were male (n = 3) and female (n = 1) between the ages of 31 and 62 years old. Hepatic uptake, biliary excretion and in vitro biliary clearance (Clb) were determined using the B-CLEAR® hepatocyte sandwich culture model as described by Liu et al., 1999 [34]. In this system, hepatocytes form functional bile canalicular networks while maintaining the expression and function of key uptake and efflux transporters. The canalicular system of bile pockets remains separate from the cellular culture media due to tight junctions between cells. The integrity of these tight junctions is maintained in the presence of calcium (Plus (+) buffer) while in the absence of calcium (Minus (−) buffer), these tight junctions open and release the contents of the canalicular network into the media.
A dose solution containing 2.5 µM d8-taurocholic acid (d8-TCA) was prepared in Plus (+) Buffer. Co-incubation solutions were prepared by combining d8-TCA dose solution and ERA or rifamycin-SV. Hepatocytes were washed and then conditioned for 10 min in warm Plus (+) or Minus (−) buffer with and without ERA or rifamycin-SV. Pre-incubation solutions were then removed and replaced with dose or co-incubation solutions and incubated for 10 min at 37°C. Following this 10 minute incubation, the dose or co-incubation solutions were removed and the cells were then washed three times with ice-cold Plus (+) buffer. The plates were then frozen at −80°C until processed for bioanalysis.
Study samples were stored in their original 24-well plates at −80°C until prepared for analysis. A volume of 500 µL of cell lysis solution (70∶30 methanol:water) containing 25 nM internal standard was added to each well and mixed for 20 min of mixing. The volume in each well was then transferred to a 96-well filter plate stacked on a Greiner deep well collection plate. The filter plate/collection plate was then centrifuged at 2000 rcf for 5 min. The filtrate was then evaporated to dryness under nitrogen. Samples were reconstituted in 200 µL of sample diluent (60∶40 methanol:10 mM ammonium acetate, native pH), sealed, and placed on a plate shaker for 15 min. These samples were then transferred to a Whatman 96-well 0.45 µm PVDF filter plate stacked on a Costar 3956 plate (HPLC injection plate), centrifuged at 2000 rcf for 2–3 min, and sealed with a silicon cap mat prior to LC-MS/MS analysis. d8-TCA standard spiking solutions were prepared in 50∶50 methanol:water. For a given lysate standard or control, 10 µL was added to each well of a previously frozen analytical plate. Standards representing 0.5–100 pmoles/well and QC’s at the LLQ and ULQ were prepared. These lysate standards and controls were then further processed as described above for unknown study samples. Prepared samples were filtered and analyzed by LC-MS/MS using a Shimadzu binary HPLC system (Columbia, MD) and tandem mass spectrometry using Thermo Electron TSQ® Quantum Discovery MAX™ (Waltham, MA) with an Ion Max ESI source operating in negative ion electrospray ionization mode. Results for unknowns and QCs were calculated using a standard curve based on an internal standard processing method.
Data calculations were performed using Microsoft Excel, 2010 with all values reported as mean ± standard deviation (SD). Statistical comparisons across ERA treatments were performed using analysis of variance (ANOVA) with Fisher’s PLSD post hoc analysis (Statview 5.0, SAS Institute, Cary NC); statistical significance was considered to be P<0.05. All mass values were normalized to mg protein by taking the average protein mass in the taurocholate plate determined using a BCA protein assay (Pierce Biotechnology, Rockford, IL). Cellular accumulation determined in Minus (−) buffer (Accumulation Minus (−) Buffer) represents the total mass of analyte inside the hepatocyte at the end of the incubation time period. […]

## CO[C@H]1/C=C/O[C@@]2(C)Oc3c(C)c(O)c4c(O)c(cc(O)c4c3C2=O)NC(=O)/C(C)=C\C=C\[C@H](C)[C@H](O)[C@@H](C)[C@@H](O)[C@@H](C)[C@H](OC(C)=O)[C@@H]1C [rifamycin-SV]
Untreated control 19.9±7.8
  d8-TCA Clb in the presence of control inhibitor: 4.5 ± 2.1 mL/min/kg
Untreated control 74.7%
  d8-TCA BEI in the presence of control inhibitor: 57.1%
